Assay results published in ChEMBL document CHEMBL1201862, “PubChem BioAssay data set” (2004).
Active and inactive are the calls of the source.

Assays:
HEK293 [1] = assay: NOD2 signaling inhibitors in MDP-stimulated cells, cell-based, uHTS, luminescence (AID 2001); assay type: functional; settings: Homo sapiens
HEK293 [2] = assay: cells; assay type: functional, cell-based; settings: Homo sapiens
HEK293 [3] = assay: inhibition of NOD1-driven NF-kB reporter – cell-based, luminescence, uHTS, primary screen (AID 1578); assay type: functional; settings: Homo sapiens
HEK293 [4] = assay: cells; assay type: functional, cell-based; settings: Homo sapiens; remark: listed apart in the source
[5] = molecular target: T1, Histone-lysine N-methyltransferase NSD2 (Homo sapiens, UniProt O96028); assay type: biochemical
T1 sequence (O96028 whole entry): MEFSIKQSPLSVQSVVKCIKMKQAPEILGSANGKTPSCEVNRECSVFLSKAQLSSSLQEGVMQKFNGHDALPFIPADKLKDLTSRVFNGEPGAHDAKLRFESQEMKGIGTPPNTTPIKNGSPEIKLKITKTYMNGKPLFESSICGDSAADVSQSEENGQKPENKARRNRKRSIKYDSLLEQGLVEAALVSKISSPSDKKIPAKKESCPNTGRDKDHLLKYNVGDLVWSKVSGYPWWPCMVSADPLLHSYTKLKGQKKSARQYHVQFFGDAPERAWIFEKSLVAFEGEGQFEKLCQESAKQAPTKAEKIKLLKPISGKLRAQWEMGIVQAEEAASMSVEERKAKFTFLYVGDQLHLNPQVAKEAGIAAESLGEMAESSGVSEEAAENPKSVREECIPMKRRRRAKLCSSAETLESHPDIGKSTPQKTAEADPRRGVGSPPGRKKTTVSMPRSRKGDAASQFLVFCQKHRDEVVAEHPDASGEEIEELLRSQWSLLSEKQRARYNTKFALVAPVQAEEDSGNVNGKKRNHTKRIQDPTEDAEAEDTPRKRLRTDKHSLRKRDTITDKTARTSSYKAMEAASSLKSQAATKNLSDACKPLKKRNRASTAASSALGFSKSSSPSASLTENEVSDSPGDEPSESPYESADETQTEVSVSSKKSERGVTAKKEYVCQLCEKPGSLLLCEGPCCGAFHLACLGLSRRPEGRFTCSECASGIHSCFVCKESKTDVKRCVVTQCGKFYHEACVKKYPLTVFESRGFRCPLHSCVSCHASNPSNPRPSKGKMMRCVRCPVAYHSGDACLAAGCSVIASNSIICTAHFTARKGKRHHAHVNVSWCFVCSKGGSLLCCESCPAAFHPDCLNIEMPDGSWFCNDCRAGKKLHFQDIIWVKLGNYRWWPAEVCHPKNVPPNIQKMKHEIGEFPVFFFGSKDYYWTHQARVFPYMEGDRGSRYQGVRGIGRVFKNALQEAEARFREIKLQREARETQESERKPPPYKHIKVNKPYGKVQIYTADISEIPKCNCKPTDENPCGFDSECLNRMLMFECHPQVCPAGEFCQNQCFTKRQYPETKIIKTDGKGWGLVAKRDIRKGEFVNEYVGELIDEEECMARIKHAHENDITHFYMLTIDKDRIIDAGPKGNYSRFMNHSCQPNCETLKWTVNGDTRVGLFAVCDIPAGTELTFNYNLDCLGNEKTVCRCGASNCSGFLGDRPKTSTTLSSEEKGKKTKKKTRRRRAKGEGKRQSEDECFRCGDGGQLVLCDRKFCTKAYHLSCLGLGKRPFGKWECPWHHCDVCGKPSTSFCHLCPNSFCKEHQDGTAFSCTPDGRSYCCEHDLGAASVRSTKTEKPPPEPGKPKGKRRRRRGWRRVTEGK

[6] = molecular target: T2, DNA repair protein RAD52 homolog (Homo sapiens, UniProt P43351); assay type: functional, biochemical
T2 sequence (P43351 whole entry): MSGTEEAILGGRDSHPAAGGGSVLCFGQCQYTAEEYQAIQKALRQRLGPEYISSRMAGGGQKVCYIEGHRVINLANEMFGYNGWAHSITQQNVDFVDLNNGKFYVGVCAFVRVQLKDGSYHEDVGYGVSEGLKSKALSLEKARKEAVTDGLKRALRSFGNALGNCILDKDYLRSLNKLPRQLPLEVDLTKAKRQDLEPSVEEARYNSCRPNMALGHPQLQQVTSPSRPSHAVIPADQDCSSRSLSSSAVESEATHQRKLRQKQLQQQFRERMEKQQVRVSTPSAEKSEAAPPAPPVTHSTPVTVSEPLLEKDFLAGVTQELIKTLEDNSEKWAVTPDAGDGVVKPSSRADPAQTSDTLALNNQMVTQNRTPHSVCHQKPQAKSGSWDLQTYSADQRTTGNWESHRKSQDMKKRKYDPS

[7] = molecular target: Dual specificity tyrosine-phosphorylation-regulated kinase 1A (Rattus norvegicus, UniProt Q63470); assay type: biochemical, Homo sapiens
[8] = molecular target: T3, Sentrin-specific protease 7 (Homo sapiens, UniProt Q9BQF6); assay type: functional;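 further: Luminescence-based dose-response confirmation of ultra-high-throughput screening hits, measuring inhibition of SENP7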
T3 sequence (Q9BQF6 whole entry): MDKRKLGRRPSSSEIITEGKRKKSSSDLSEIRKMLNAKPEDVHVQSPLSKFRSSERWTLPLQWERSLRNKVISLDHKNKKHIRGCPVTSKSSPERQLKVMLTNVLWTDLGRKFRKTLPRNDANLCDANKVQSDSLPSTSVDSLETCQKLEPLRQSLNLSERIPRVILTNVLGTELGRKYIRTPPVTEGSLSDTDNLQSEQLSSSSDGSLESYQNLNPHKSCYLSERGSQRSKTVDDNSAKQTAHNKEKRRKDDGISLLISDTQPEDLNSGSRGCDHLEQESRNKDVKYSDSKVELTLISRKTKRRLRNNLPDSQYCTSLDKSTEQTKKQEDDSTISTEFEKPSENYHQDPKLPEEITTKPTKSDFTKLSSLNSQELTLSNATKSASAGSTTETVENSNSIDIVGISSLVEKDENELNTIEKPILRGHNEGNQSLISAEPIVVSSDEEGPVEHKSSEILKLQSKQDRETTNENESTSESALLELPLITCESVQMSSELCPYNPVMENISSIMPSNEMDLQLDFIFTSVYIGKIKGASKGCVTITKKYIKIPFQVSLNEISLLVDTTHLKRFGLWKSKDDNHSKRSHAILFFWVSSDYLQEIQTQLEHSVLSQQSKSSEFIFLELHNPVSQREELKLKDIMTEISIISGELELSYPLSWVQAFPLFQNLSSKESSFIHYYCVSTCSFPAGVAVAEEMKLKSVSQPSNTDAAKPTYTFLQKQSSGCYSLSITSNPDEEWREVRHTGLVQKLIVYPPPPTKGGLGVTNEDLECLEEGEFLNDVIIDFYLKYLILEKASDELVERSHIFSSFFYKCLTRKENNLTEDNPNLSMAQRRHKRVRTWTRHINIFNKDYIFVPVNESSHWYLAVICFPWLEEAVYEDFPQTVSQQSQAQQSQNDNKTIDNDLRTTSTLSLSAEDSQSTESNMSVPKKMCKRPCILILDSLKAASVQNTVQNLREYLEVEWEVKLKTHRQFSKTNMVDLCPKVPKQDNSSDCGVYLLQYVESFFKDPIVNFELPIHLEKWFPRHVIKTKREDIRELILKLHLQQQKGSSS

[9] = molecular target: T4, Sentrin-specific protease 6 (Homo sapiens, UniProt Q9GZR1); assay type: functional;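 further: Luminescence-based dose-response confirmatory assay of SENP6 inhibition, following up an ultra-high-throughput screen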
T4 sequence (Q9GZR1 whole entry): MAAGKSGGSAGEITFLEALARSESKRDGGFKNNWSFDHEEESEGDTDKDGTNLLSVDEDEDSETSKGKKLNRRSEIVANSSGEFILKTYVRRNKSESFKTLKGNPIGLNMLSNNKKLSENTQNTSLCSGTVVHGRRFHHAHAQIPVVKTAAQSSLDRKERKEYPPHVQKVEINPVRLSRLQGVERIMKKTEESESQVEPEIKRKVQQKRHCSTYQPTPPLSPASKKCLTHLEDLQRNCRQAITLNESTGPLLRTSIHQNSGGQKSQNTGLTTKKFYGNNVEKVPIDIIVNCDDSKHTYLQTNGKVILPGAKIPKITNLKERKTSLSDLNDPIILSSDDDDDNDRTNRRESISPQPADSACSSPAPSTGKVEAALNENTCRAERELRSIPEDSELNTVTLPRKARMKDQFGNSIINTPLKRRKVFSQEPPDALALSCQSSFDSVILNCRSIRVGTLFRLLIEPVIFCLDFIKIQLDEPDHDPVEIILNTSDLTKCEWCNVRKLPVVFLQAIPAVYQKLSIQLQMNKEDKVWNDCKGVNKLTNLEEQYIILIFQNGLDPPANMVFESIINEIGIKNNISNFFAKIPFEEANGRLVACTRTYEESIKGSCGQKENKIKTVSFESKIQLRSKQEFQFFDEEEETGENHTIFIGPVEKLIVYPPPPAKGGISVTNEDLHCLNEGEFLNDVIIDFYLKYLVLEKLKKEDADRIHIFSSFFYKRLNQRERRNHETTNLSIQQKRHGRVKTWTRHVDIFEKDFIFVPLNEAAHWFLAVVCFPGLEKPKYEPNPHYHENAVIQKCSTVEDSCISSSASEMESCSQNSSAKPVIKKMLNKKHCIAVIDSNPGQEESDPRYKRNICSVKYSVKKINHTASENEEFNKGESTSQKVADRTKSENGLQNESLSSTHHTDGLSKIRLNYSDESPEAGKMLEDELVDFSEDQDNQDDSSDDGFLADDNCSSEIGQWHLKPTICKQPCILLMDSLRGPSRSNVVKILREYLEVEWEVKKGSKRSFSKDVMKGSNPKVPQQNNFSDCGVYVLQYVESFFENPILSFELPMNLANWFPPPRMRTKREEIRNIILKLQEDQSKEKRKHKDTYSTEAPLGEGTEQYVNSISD

[10] = molecular target: T5, Sentrin-specific protease 8 (Homo sapiens, UniProt Q96LD8); assay type: functional;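 further: luminescence read-out of SENP8 inhibition, dose-response confirmation following an ultra-high-throughput screen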
T5 sequence (Q96LD8 whole entry): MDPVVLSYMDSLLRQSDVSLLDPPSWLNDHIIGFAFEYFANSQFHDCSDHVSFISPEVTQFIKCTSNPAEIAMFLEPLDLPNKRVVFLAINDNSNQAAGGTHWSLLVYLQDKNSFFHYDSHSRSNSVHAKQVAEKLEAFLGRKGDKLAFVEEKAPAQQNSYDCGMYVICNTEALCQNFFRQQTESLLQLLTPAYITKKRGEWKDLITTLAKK

[11] = activation of miR-122 Renilla sensor silencing – cell-based, Huh7 psiCHECK-miR122, Renilla luciferase, cherry-picked, dose response (AID 651956); assay type: functional;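 further: huh7 hepatoma cells stably carrying a psiCHECK-2 miR-122 sensor plasmid; renilla luciferase signal reporting endogenous miR-122 activity after 48 h compound exposure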
Paired box protein Pax-8 = Paired box protein Pax-8 (Homo sapiens, UniProt Q06710); assay: PAX8 transcriptional activity inhibition in RMG-I – RMG-I cells, luciferase, cherry-pick, dose response (AID 687027); assay type: functional, cell-based;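 further: luciferase reporter driven by Pax8 target thyroperoxidase promoter measured by SteadyGlo luminescence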
[12] = off-target signal loss in HeLa-CEM21 co-culture – HeLa F-luc CTL cells, cherry-picked, counter-screen for HIV-1 Env fusion inhibitor project, dose response (AID 652040); assay type: functional, cell-based;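 further: potency for signal decrease marking cytotoxic or nonspecific inhibition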
[13] = HIV-1 AD8 envelope cell-cell fusion blockers – cherry-pick, dose response (AID 652062); assay type: functional, cell-based;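 further: luciferase signal from cell-cell fusion driven by HIV-1 clade B AD8 Env; potency is for inhibitors of fusion seen as a drop in luminescence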
[14] = viability loss in CEM21 cells – cell-based, CellTiter-Glo luminescence, cherry-picked, cytotoxicity control for viral fusion inhibitor project, dose response (AID 652042); assay type: functional;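 further: potency for signal decrease meaning cytotoxicity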
[15] = blockers of HIV-1 envelope-mediated cell-cell fusion – cherry-pick, dose response (AID 652057); assay type: functional, cell-based
[16] = blockers of HIV-1 ZM109 envelope-driven cell-cell fusion – HeLa effector, CEM target cells, luciferase, cherry-pick, dose response (AID 652058); assay type: functional, cell-based;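 further: luciferase signal from HIV-1 Env mediated cell-cell fusion of effector and target cells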
[17] = growth inhibition of PfATP4-mutant resistant parasites – NITD609-resistant line, SYBR Green, dry powder, dose response (AID 1159571); assay type: functional, cell-based;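 further: parasites synchronized at ring stage by sorbitol before testing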
[18] = Dd2 malaria parasite growth inhibition potency – SYBR Green, dry powder samples, dose response (AID 1159566); assay type: functional, cell-based;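 further: potency for growth inhibition with lower SYBR green DNA signal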
[19] = growth inhibition of yeast DHODH-expressing 3D7 parasites – SYBR Green, dry powder samples, dose response (AID 1159570); assay type: functional, cell-based;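 further: parasite growth measured after 72 hours of compound exposure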
[20] = P. falciparum Dd2 growth inhibitors, dose response, SYBR Green, cherry-picked samples (AID 1159567); assay type: functional, cell-based

Paired box protein Pax-8, sequence (Q06710 whole entry, the tested form may be a part): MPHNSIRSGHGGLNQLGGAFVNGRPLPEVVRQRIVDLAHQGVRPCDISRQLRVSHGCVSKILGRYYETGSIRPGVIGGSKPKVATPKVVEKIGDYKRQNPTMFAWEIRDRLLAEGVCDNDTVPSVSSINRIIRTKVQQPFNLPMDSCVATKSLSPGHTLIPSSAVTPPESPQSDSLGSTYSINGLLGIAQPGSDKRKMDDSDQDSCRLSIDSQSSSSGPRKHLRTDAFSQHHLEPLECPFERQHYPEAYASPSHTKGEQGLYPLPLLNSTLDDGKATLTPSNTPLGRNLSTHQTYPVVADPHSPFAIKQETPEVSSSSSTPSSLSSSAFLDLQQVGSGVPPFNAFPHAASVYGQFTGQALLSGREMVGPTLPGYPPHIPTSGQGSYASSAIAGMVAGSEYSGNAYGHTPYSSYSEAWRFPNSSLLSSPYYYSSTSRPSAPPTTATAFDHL

CCOc1ccc(C(=O)/C=C/c2cc(OC)c(OC)c(OC)c2)cc1
IC50 (HEK293 [1]): 5.02 µM (active)
IC50 (HEK293 [2]): 5.97 µM (active)
EC50 (HEK293 [3]): 11.5 µM (active)
IC50 (HEK293 [4]): 14.7 µM (active)

CN1CCN(c2ccc(N)cc2Cl)CC1
AC50 [5]: > 20 µM (inactive)
AC50 [6]: 0.931 µM (active)

Oc1ccnc2ccc(Cl)cc12
AC50 [7]: 13.6 µM (active)

Cc1c(NS(=O)(=O)c2ccc3c(c2)OCCO3)cccc1-c1nc2cccnc2s1
IC50 (HEK293 [1]): 4.02 µM (active)
IC50 (HEK293 [2]): 5.27 µM (active)
EC50 (HEK293 [3]): 4.14 µM (active)
IC50 (HEK293 [4]): 10.9 µM (active)

CC(C)(C)c1ccc(C(=O)NCCOc2ccccc2)cc1
IC50 [8]: 5.62 µM (active)
IC50 [9]: > 100 µM (inactive)
IC50 [10]: > 100 µM (inactive)

C[C@@H]1CN([C@@H](C)CO)C(=O)Cc2cc(NS(=O)(=O)c3ccc(F)cc3)ccc2O[C@H]1CN(C)Cc1ccc(Oc2ccccc2)cc1
AC50 [11]: 1.96 µM (active)
AC50 (Paired box protein Pax-8): 5.32 µM (active)

C[C@H](CO)N1C[C@H](C)[C@H](CN(C)C(=O)N[C@H](C)c2ccccc2)OCc2ccccc2-c2c(n(C)c3ccccc23)C1=O
AC50 [12]: 1.53 µM (active)
AC50 [13]: 1.07 µM (active)
AC50 [14]: 64.6 µM (active)
AC50 [15]: 0.975 µM (active)
AC50 [16]: 1.62 µM (active)

CCC(=O)Nc1ccc2c(c1)OC[C@H](C)N(CC1CCCCC1)C[C@H](C)[C@@H](OC)CN(C)C2=O
AC50 [13]: 4.48 µM (active)
AC50 [14]: 55.6 µM (active)
AC50 [15]: 2.93 µM (active)
AC50 [16]: 2.21 µM (active)

C[C@@H]1CN([C@@H](C)CO)C(=O)c2cccc(NC(=O)Nc3ccc4c(c3)OCO4)c2O[C@@H]1CN(C)C(=O)Nc1ccc2c(c1)OCO2
AC50 [17]: 0.865 µM (active)
AC50 [18]: 0.954 µM (active)
AC50 [19]: 1.52 µM (active)
AC50 [20]: 1.2 µM (active)

Cc1nc(NC(=N)N)nc2ccccc12
AC50 [6]: 13.7 µM (active)
